The values that follow come from PMC8856729 (Bioorganic & Medicinal Chemistry Letters, 2022).

Each structure is given as a SMILES string. Where two headings read alike, the source gives them in different places.

The test system of this assay is SARS-CoV-2 M^pro variants (all mutants and the WT). Type of assay: biochemical.

Turning to `CC(C)(C)[C@H](NC(=O)C(F)(F)F)C(=O)N1C[C@H]2[C@@H]([C@H]1C(=O)N[C@H](C#N)C[C@@H]1CCNC1=O)C2(C)C` [nirmatrelvir], the inhibition entry is “below 50%” (0.005 µM) and “over 50%” (0.02 µM). Further, the “inhibition of enzymatic activity” value (0.1 µM) is “fully inhibited”.
